Tests used:
[1] = test system: carrageenin-induced oedema; assay: carrageenin-induced oedema test (anti-inflammatory activity); format: in vivo, albino male Wistar rats
Method: This effect was evaluated by means of an experimental model reproducing acute inflammation: for this purpose the carrageenin- induced oedema test was employed following the method described by C.
Albino male Wistar rats weighing 140-160 g were caged for 10 days at 22±1° C. and given a balanced diet and water ad libitum. Eighteen hours before the experiment the animals were randomized into groups of ten and fasted but with free access to water. Each dose was tested in three groups of rats. Each compound was given either orally, by gavage, or parenterally--intraperitoneal injection--administering as follows:
controls: 0.5% carboxymethylcellulose suspension in physiological saline, 10 ml/kg
treated: suspension of the compounds to be tested in the same vehicle and at the same volume (10 ml/kg) used for the controls at the doses specified below.
One hour after administration of the compounds and vehicle, in order to provoke the oedema for determining the protective effect of the substances under examination, each rat received, by subcutaneous injection into the plantar surface of the left paw, 0.1 ml of 1% sterile carrageenin suspension.

[2] = test system: phenyl-p-quinone-induced writhing (abdominal contractions); assay: phenylquinone-induced writhing test (analgesic activity), compound given 30 min before phenyl-p-quinone; format: in vivo, male Wistar rats
Method: Male Wistar rats weighing 110±5 g were caged for 10 days at 22±1° C. and given a balanced diet with free access to water. Twenty-four hours before the experiment the animals were randomized into groups of 10 and fasted for 14 hours but with free access to water. Each dose was tested in 3 groups of rats. Thirty minutes following administration either orally or parenterally of the products to be tested and the vehicle alone (0.5% carboxymethyl-cellulose in physiological saline) in the control animals, each rat was given 2 ml of a 5% absolute ethanol aqueous solution containing 0.36% of phenyl-p-quinone (Sigma Chemical Company) in order to provoke writhings. Fifteen minutes after administration of phenyl-p-quinone the number of contractions were counted for 20 minutes. The inhibiting effect of the compounds under examination on the abdominal contractions induced by phenyl-p-quinone was calculated by the following formula: % protection= [formula]
Table V lists the tested compounds, doses, routes of administration and their efficacy expressed as percentage of protection, taking into account that phenyl-p-quinone was administered thirty minutes after the compounds.

[3] = test system: mucus secreted by the respiratory airway; assay: antisecretory activity, respiratory mucus secretion; format: in vivo, albino male New Zealand rabbits; conditions: vs control group
Method: The experiment was carried out in accordance with the method described by Y. Kase (Folia Pharmacol. Jap. 73: 605, 1977) for the purpose of investigating whether or not the compounds under examination determine changes in the volume of the mucus secreted by the respiratory airway. Groups of four albino male New Zealand rabbits (mean weight: 2.5 kg) were used for testing each dose per single group. The animals were anesthetized with urethane (1.1 g/ks b.w.) via the intraperitoneal route and a Y cannula was inserted into the trachea. In order to stimulate mucous secretion a humidifier was connected to the cannula permitting the animals to spontaneously breathe air with 100% humidity at a constant temperature of 39° C. The secreted mucus was collected through another opening in the cannula and measured at three and six hours after administration of the compounds under examination or of the vehicle alone administered in the order of […] (controls). Calculation of the increase or decrease in mucous secretion was based upon the percentage differences between the groups treated with the compounds under examination and the control group. Table VII gives the percentage differences in mucous secretion, and the tested compounds with relative doses and routes of administration.

[4] = test system: cough provoked by mechanical stimulation of the tracheal bifurcation mucosa; assay: antitussive activity, mechanically provoked coughing; format: in vivo, albino Guinea-pigs; conditions: 1 h after administration
Method: The antitussive effect on albino Guinea-pigs weighing 300 g was evaluated using the method described by Y. Kase (Selected Pharmacological Testing Methods, p.363, Marcel Dekker Inc., New York, 1968). Each dose was tested in a group of animals with a Y cannula inserted into the trachea. In order to provoke coughing, the mucosa of the tracheal bifurcation was mechanically stimulated by insertion of a wild boar's hair through an opening in the cannula, while the other opening was connected to a kymograph to plot the amplitude and/or frequency. The reduction in the number of coughs was evaluated at one hour after administration of the compounds under examination by following the plottings for twenty minutes and comparing the response of the control animals.

CCOC(=O)c1ccc(NC(=O)Cc2ccc(C(=O)c3ccc(C)cc3)n2C)cc1 [Compound 1-h, 1-methyl-5-p-toluoylpyrrole-2-N-(4-carboxyethyl-phenyl) acetamide]
oedema % inhibition ([1]; 25 mg/Kg per os, 2 h): 28.9% | oedema % inhibition ([1]; 25 mg/Kg per os, 4 h): 30.1% | oedema % inhibition ([1]; 25 mg/Kg per os, 6 h): 29.0% | oedema % inhibition ([1]; 25 mg/Kg per os, 24 h): 8.3% | oedema % inhibition ([1]; 25 mg/Kg per os, 48 h): 0.0% | oedema % inhibition ([1]; 25 mg/Kg per os, 72 h): 0.0% | oedema % inhibition ([1]; 25 mg/Kg, Table IV (route not given), 2 h): 30.1% | oedema % inhibition ([1]; 25 mg/Kg, Table IV (route not given), 4 h): 27.9% | oedema % inhibition ([1]; 25 mg/Kg, Table IV (route not given), 6 h): 29.0% | oedema % inhibition ([1]; 25 mg/Kg, Table IV (route not given), 24 h): 13.0% | oedema % inhibition ([1]; 25 mg/Kg, Table IV (route not given), 48 h): 0.0% | oedema % inhibition ([1]; 25 mg/Kg, Table IV (route not given), 72 h): 0.0% | oedema % inhibition ([1]; 50 mg/Kg per os, 2 h): 48.9% | oedema % inhibition ([1]; 50 mg/Kg per os, 4 h): 49.0% | oedema % inhibition ([1]; 50 mg/Kg per os, 6 h): 47.1% | oedema % inhibition ([1]; 50 mg/Kg per os, 24 h): 9.9% | oedema % inhibition ([1]; 50 mg/Kg per os, 48 h): 0.0% | oedema % inhibition ([1]; 50 mg/Kg per os, 72 h): 0.0% | oedema % inhibition ([1]; 50 mg/Kg, Table IV (route not given), 2 h): 50.2% | oedema % inhibition ([1]; 50 mg/Kg, Table IV (route not given), 4 h): 51.0% | oedema % inhibition ([1]; 50 mg/Kg, Table IV (route not given), 6 h): 47.0% | oedema % inhibition ([1]; 50 mg/Kg, Table IV (route not given), 24 h): 15.1% | oedema % inhibition ([1]; 50 mg/Kg, Table IV (route not given), 48 h): 0.0% | oedema % inhibition ([1]; 50 mg/Kg, Table IV (route not given), 72 h): 0.0% | oedema % inhibition ([1]; 100 mg/Kg per os, 2 h): 66.9% | oedema % inhibition ([1]; 100 mg/Kg per os, 4 h): 67.1% | oedema % inhibition ([1]; 100 mg/Kg per os, 6 h): 69.0% | oedema % inhibition ([1]; 100 mg/Kg per os, 24 h): 22.0% | oedema % inhibition ([1]; 100 mg/Kg per os, 48 h): 13.0% | oedema % inhibition ([1]; 100 mg/Kg per os, 72 h): 0.0% | oedema % inhibition ([1]; 100 mg/Kg, Table IV (route not given), 2 h): 70.1% | oedema % inhibition ([1]; 100 mg/Kg, Table IV (route not given), 4 h): 68.9% | oedema % inhibition ([1]; 100 mg/Kg, Table IV (route not given), 6 h): 66.0% | oedema % inhibition ([1]; 100 mg/Kg, Table IV (route not given), 24 h): 19.0% | oedema % inhibition ([1]; 100 mg/Kg, Table IV (route not given), 48 h): 10.0% | oedema % inhibition ([1]; 100 mg/Kg, Table IV (route not given), 72 h): 0.0% | % Protection ([2]; 5 mg/Kg i.p.): 18.0% | % Protection ([2]; 5 mg/Kg per os): 16.2% | % Protection ([2]; 10 mg/Kg i.p.): 44.0% | % Protection ([2]; 10 mg/Kg per os): 37.9% | % Protection ([2]; 20 mg/Kg i.p.): 79.0% | % Protection ([2]; 20 mg/Kg per os): 70.1% | % difference in mucus secretion ([3]; 50 mg/Kg i.p., 3 h): -8% | % difference in mucus secretion ([3]; 50 mg/Kg i.p., 6 h): -3% | % difference in mucus secretion ([3]; 50 mg/Kg per os, 3 h): -5% | % difference in mucus secretion ([3]; 50 mg/Kg per os, 6 h): 0.0% | % difference in mucus secretion ([3]; 75 mg/Kg i.p., 3 h): -26% | % difference in mucus secretion ([3]; 75 mg/Kg i.p., 6 h): -20% | % difference in mucus secretion ([3]; 75 mg/Kg per os, 3 h): -19% | % difference in mucus secretion ([3]; 75 mg/Kg per os, 6 h): -16% | % difference in mucus secretion ([3]; 100 mg/Kg i.p., 3 h): -41% | % difference in mucus secretion ([3]; 100 mg/Kg i.p., 6 h): -38% | % difference in mucus secretion ([3]; 100 mg/Kg per os, 3 h): -39% | % difference in mucus secretion ([3]; 100 mg/Kg per os, 6 h): -32% | % inhibition, cough amplitude ([4]; 50 mg/Kg i.p.): 20% | % inhibition, cough frequency ([4]; 50 mg/Kg i.p.): 18% | % inhibition, cough amplitude ([4]; 50 mg/Kg per os): 13% | % inhibition, cough frequency ([4]; 50 mg/Kg per os): 10% | % inhibition, cough amplitude ([4]; 75 mg/Kg i.p.): 29% | % inhibition, cough frequency ([4]; 75 mg/Kg i.p.): 35% | % inhibition, cough amplitude ([4]; 75 mg/Kg per os): 22% | % inhibition, cough frequency ([4]; 75 mg/Kg per os): 18% | % inhibition, cough amplitude ([4]; 100 mg/Kg i.p.): 45% | % inhibition, cough frequency ([4]; 100 mg/Kg i.p.): 53% | % inhibition, cough amplitude ([4]; 100 mg/Kg per os): 40% | % inhibition, cough frequency ([4]; 100 mg/Kg per os): 50%

From patent publication US4882349A, “Pyrrolacetic amides having antiinflammatory activity” (priority 1982, dated 1989)
